# In patent US9982005B2, “Macrolides and methods of their preparation and use” (President and Fellows of Harvard College, priority 2013, dated 2018):
# Where two headings read alike, the source gives them in different places.
# Legend:
# Assay type in all cases: cell-based
# [1] = tested on: HI281 H. influenzae; assay: broth dilution MIC, H. influenzae HI281; conditions: Haemophilus influenzae
# Excerpt: (§1) We have collected MIC data for a total of 50 novel macrolides that this platform has produced against over 21 unique strains of B. subtilis, E. coli, S. aureus, S. pneumoniae, and H. influenzae, including several multidrug-resistant strains, with a special focus on macrolide resistant mechanisms (vide supra). Azithromycin was included as a control macrolide. CLSI standard procedures for broth dilution MIC determination were used. […] These genotypes can be constitutive or inducible. The finding that C4-epi (unnatural) isomers of the “azaketolide” macrolide class have enhanced activities relative to C4 natural isomers is very exciting.
# [2] = tested on: HI175 H. influenzae ATCC49247; assay: broth dilution MIC, H. influenzae HI175; conditions: Haemophilus influenzae
# Excerpt: as §1
# [3] = tested on: K. pneumoniae strains; assay: MIC against K. pneumoniae strains (Table M8); conditions: Klebsiella pneumoniae, K. pneumoniae 10031
# [4] = tested on: SA1708 S. aureus ermA positive msrA negative; assay: broth dilution MIC, S. aureus SA1708; conditions: Staphylococcus aureus
# Excerpt: as §1
# [5] = tested on: S. pneumoniae strains; assay: MIC against S. pneumoniae strains (Tables M7, M8); conditions: for MIC: Streptococcus pneumoniae
# Excerpt: CLSI standard procedures for broth dilution MIC determination were used. […] These genotypes can be constitutive or inducible.
# [6] = tested on: S. aureus strains; assay: MIC against S. aureus strains (Table M7); conditions: for MIC: Staphylococcus aureus
# In short: (§2)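 CLSI broth dilution; MIC read-out. Azithromycin run as reference macrolide.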
# [7] = tested on: SA1707 S. aureus ermA negative msrA positive; assay: broth dilution MIC, S. aureus SA1707; conditions: Staphylococcus aureus
# Excerpt: as §1
# [8] = tested on: Spn1509 S. pneumoniae ermB positive mefA negative; assay: broth dilution MIC, S. pneumoniae Spn1509; conditions: Streptococcus pneumoniae; Spn1509 S. pneumoniae ermB positive mefA negative; read-out: MIC
# Excerpt: as §1
# [9] = tested on: H. influenzae strains; assay: MIC against H. influenzae strains (Table M8); conditions: Haemophilus influenzae
# In short: as §2
# [10] = tested on: SA506 S. aureus ermA positive msrA unknown; assay: broth dilution MIC, S. aureus SA506; conditions: Staphylococcus aureus
# Excerpt: as §1
# [11] = tested on: A. baumannii strains; assay: MIC against A. baumannii strains (Table M8); conditions: Acinetobacter baumannii, BAA747, A. baumannii BAA747-1
# [12] = tested on: SA557 S. aureus ermA unknown msrA positive; assay: broth dilution MIC, S. aureus SA557; conditions: Staphylococcus aureus; SA557 S. aureus ermA unknown msrA positive; read-out: MIC
# Excerpt: as §1
# [13] = tested on: E. faecalis strains; assay: MIC against E. faecalis strains (Table M8); conditions: Enterococcus faecalis, E. faecalis 29212
# [14] = tested on: SA101 S. aureus ATCC29213; assay: broth dilution MIC, S. aureus SA101; conditions: Staphylococcus aureus, ATCC29213, SA101 S. aureus ATCC29213; read-out: MIC
# In short: as §2
# [15] = tested on: Spn1533 S. pneumoniae ermB positive mefA positive; assay: broth dilution MIC, S. pneumoniae Spn1533; conditions: Streptococcus pneumoniae
# Excerpt: as §1
# [16] = tested on: E. coli strains; assay: MIC against E. coli strains (Table M7); conditions: Escherichia coli, ATCC25922, E. coli ATCC 25922
# In short: as §2
# [17] = tested on: Spn160 S. pneumoniae ermB unknown mefA positive; assay: broth dilution MIC, S. pneumoniae Spn160; conditions: Streptococcus pneumoniae; Spn160 S. pneumoniae ermB unknown mefA positive; read-out: MIC
# Excerpt: as §1
# [18] = tested on: Spn1537 S. pneumoniae ermB positive mefA positive; assay: broth dilution MIC, S. pneumoniae Spn1537; conditions: Streptococcus pneumoniae
# Excerpt: as §1
# [19] = tested on: Spn1427 S. pneumoniae ermB positive mefA negative; assay: broth dilution MIC, S. pneumoniae Spn1427; conditions: Streptococcus pneumoniae
# Excerpt: as §1
# [20] = tested on: Spn 106 S. pneumonia ATCC49619; assay: broth dilution MIC, S. pneumoniae Spn 106; conditions: Streptococcus pneumoniae
# Excerpt: as §1
# [21] = tested on: SA183 S. aureus ermA positive msrA unknown; assay: broth dilution MIC, S. aureus SA183; conditions: Staphylococcus aureus
# Excerpt: as §1
# [22] = tested on: SA418 S. aureus ermA negative msrA positive; assay: broth dilution MIC, S. aureus SA418; conditions: Staphylococcus aureus
# Excerpt: as §1
# [23] = tested on: EC107 E. coli ATCC25922; assay: broth dilution MIC, E. coli EC107; conditions: Escherichia coli, read-out: MIC
# In short: as §2
# [24] = tested on: EC878 E. coli tolC; assay: broth dilution MIC, E. coli EC878; conditions: Escherichia coli
# In short: as §2
# [25] = tested on: BS1723 B. subtilis BS168 WT wild type; assay: broth dilution MIC, B. subtilis BS1723; conditions: Bacillus subtilis, BS1723 B. subtilis BS168 WT wild type; read-out: MIC
# In short: as §2
# [26] = tested on: BS1725 B. subtilis ermC; assay: broth dilution MIC, B. subtilis BS1725; conditions: Bacillus subtilis
# In short: as §2
# [27] = tested on: EC882 E. coli imp; assay: broth dilution MIC, E. coli EC882; conditions: Escherichia coli
# In short: as §2
# [28] = S. pneumoniae 160, read-out: MIC S. pneumonae (160)
# [29] = S. pneumoniae 1509, read-out: MIC S. pneumoniae (1509)
# [30] = S. pneumoniae 1533, read-out: MIC S. pneumoniae (1533)
# [31] = S. pneumoniae 1537, read-out: MIC S. pneumoniae (1537)
# [32] = S. pneumoniae 49619, read-out: MIC S. pneumoniae (49619)
# [33] = ATCC29213, S. aureus ATCC 29213, read-out: MIC S. aureus (ATCC 29213)
# [34] = S. aureus 506, read-out: MIC S. aureus (506)
# [35] = S. aureus 1708, read-out: MIC S. aureus (1708)
# [36] = USA300, S. aureus USA300, read-out: MIC S. aureus (USA300)
# [37] = H. influenzae 49247, read-out: MIC H. influenzae (49247)
# [38] = H. influenzae 49766, read-out: MIC H. influenzae (49766)
# [39] = Spn 106 S. pneumonia ATCC49619, read-out: MIC
SMILES,MIC [1] [µg/mL],MIC [2] [µg/mL],MIC [3] [µg/mL],MIC [4] [µg/mL],"MIC [5, 28] [µg/mL]","MIC [5, 29] [µg/mL]","MIC [5, 30] [µg/mL]","MIC [5, 31] [µg/mL]",MIC [7] [µg/mL],MIC [8] [µg/mL],MIC [10] [µg/mL],MIC [12] [µg/mL],MIC [14] [µg/mL],MIC [15] [µg/mL],MIC [17] [µg/mL],MIC [18] [µg/mL],MIC [19] [µg/mL],MIC [21] [µg/mL],MIC [22] [µg/mL],"MIC [20, 39] [µg/mL]",also measured
CC[C@H]1OC(=O)C(C)C(=O)[C@@H](C)[C@@H](O[C@@H]2OC(C)CC(N(C)C)C2O)[C@](C)(OC)C[C@@H](C)CN[C@H](C)[C@H]2N(CCCCn3cc(-c4cccc(N)c4)nn3)C(=O)O[C@]12C (stereo partly shown) [FSM-20789],8,4,4,2,0.5,4,> 32,> 32,4,1,> 32,2,2,> 32,0.25,> 32,8,> 32,4,–,"MIC [5, 32]: 0.125 µg/mL; MIC [6, 33]: 2 µg/mL; MIC [6, 34]: > 32 µg/mL; MIC [6, 35]: 2 µg/mL; MIC [6, 36]: 4 µg/mL; MIC [9, 37]: 2 µg/mL; MIC [9, 38]: 8 µg/mL; MIC [11]: 32 µg/mL; MIC [13]: 0.5 µg/mL; MIC [16]: 16 µg/mL; MIC ([20]; ATCC49619): 0.0625 µg/mL"
CC[C@H]1OC(=O)C(C)(F)C(=O)[C@H](C)[C@@H](O[C@@H]2OC(C)CC(N(C)C)C2O)[C@](C)(OC)C[C@@H](C)CN(C)[C@H](C)[C@H]2N(CCCCn3cc(-c4cccc(N)c4)nn3)C(=O)O[C@]12C (stereo partly shown) [FSM-20797],32,8,8,8,0.25,16,> 32,> 32,8,4,> 32,8,4,> 32,0.125,> 32,32,> 32,4,≤ 0.0156,"MIC [5, 32]: 0.5 µg/mL; MIC [6, 33]: 8 µg/mL; MIC [6, 34]: > 32 µg/mL; MIC [6, 35]: 8 µg/mL; MIC [6, 36]: 8 µg/mL; MIC [9, 37]: 4 µg/mL; MIC [9, 38]: 16 µg/mL; MIC [11]: > 32 µg/mL; MIC [13]: 1 µg/mL; MIC [16]: 32 µg/mL"
CC[C@H]1OC(=O)C(C)C(=O)[C@@H](C)[C@@H](O[C@@H]2OC(C)CC(N(C)C)C2O)[C@](C)(OC)C[C@@H](C)CN[C@H](C)[C@H]2N(CCCCn3cc(-c4ccccn4)nn3)C(=O)O[C@]12C (stereo partly shown) [FSM-20754],8,2,–,4,–,–,–,–,4,4,> 32,4,2,> 32,0.25,> 32,> 32,> 32,4,–,MIC [23]: 16 µg/mL; MIC [24]: 0.5 µg/mL; MIC [25]: 2 µg/mL; MIC ([26]; BS1725 B. subtilis ermC (+ery)): 32 µg/mL; MIC [27]: 0.125 µg/mL; MIC ([20]; ATCC49619): 0.0625 µg/mL
CC[C@H]1OC(=O)C(C)(F)C(=O)[C@@H](C)[C@@H](O[C@@H]2OC(C)CC(N(C)C)C2O)[C@](C)(OC)C[C@@H](C)CN[C@H](C)[C@H]2N(CCCCn3cc(-c4ccccn4)nn3)C(=O)O[C@]12C (stereo partly shown) [FSM-20716],> 32,8,–,32,–,–,–,–,16,8,> 32,16,8,> 32,0.5,> 32,> 32,> 32,16,0.25,MIC [23]: > 32 µg/mL; MIC [24]: 1 µg/mL; MIC [25]: 8 µg/mL; MIC ([26]; BS1725 B. subtilis ermC (+ery)): > 32 µg/mL; MIC ([26]; BS1725 B. subtilis ermC (−ery)): 4 µg/mL; MIC [27]: 0.25 µg/mL
CC[C@H]1OC(=O)C(C)(F)C(=O)[C@@H](C)[C@@H](O[C@@H]2OC(C)CC(N(C)C)C2O)[C@](C)(OC)C[C@@H](C)CN[C@H](C)[C@H]2N(CCCCn3cc(-c4cccc(N)c4)nn3)C(=O)O[C@]12C (stereo partly shown) [FSM-20720],32,4,8,16,0.5,8,> 32,> 32,16,2,> 32,8,4 to 8,> 32,0.5,> 32,8,> 32,8,0.125,"MIC [23]: > 32 µg/mL; MIC [24]: 1 µg/mL; MIC [5, 32]: 1 µg/mL; MIC [6, 33]: 4 µg/mL; MIC [6, 34]: > 32 µg/mL; MIC [6, 35]: 8 µg/mL; MIC [6, 36]: 8 µg/mL; MIC [25]: 4 µg/mL; MIC [9, 37]: 8 µg/mL; MIC [9, 38]: 32 µg/mL; MIC ([26]; BS1725 B. subtilis ermC (+ery)): > 32 µg/mL; MIC [27]: 1 µg/mL; MIC [11]: > 32 µg/mL; MIC [13]: 2 µg/mL; MIC [16]: > 32 µg/mL"
CC[C@H]1OC(=O)[C@H](C)C(=O)C[C@@H](O[C@@H]2OC(C)CC(N(C)C)C2O)[C@](C)(OC)C[C@@H](C)C(=O)N[C@H](C)[C@H]2N(CCCCn3cc(-c4ccccn4)nn3)C(=O)O[C@]12C (stereo partly shown) [FSM-20739],32,> 32,–,> 32,–,–,–,–,> 32,> 32,> 32,> 32,> 32,> 32,> 32,> 32,> 32,> 32,> 32,32,–
CC[C@H]1OC(=O)C(C)(F)C(=O)[C@H](C)[C@@H](O[C@@H]2OC(C)CC(N(C)C)C2O)[C@](C)(OC)C[C@@H](C)CN[C@H](C)[C@H]2N(CCCCn3cc(-c4cccc(N)c4)nn3)C(=O)O[C@]12C (stereo partly shown) [FSM-20795],4 to 8,1 to 2,2,0.5,≤ 0.0625,0.5,> 32,> 32,0.5 to 1,0.125 to 0.25,> 32,0.25 to 0.5,0.25 to 0.5,16,0.0312,32,1 to 2,> 32,0.5 to 1,≤ 0.0156,"MIC S. pneumoniae (1509) ([5]; S. pneumoniae 1509): 1 µg/mL; MIC [5, 32]: ≤ 0.0625 µg/mL; MIC S. aureus (1708) ([6]; S. aureus 1708): 0.5 µg/mL; MIC [6, 33]: 0.5 µg/mL; MIC ([6]; S. aureus 183, read-out: MIC S. aureus (183)): > 32 µg/mL; MIC [6, 34]: > 32 µg/mL; MIC [6, 35]: 0.25 µg/mL; MIC [6, 36]: 1 µg/mL; MIC [9, 37]: 0.5 µg/mL; MIC [9, 38]: 4 µg/mL; MIC [11]: 16 µg/mL; MIC [13]: 0.125 µg/mL; MIC [16]: 4 µg/mL"
